Results: the NIST ThermoML archive (doi:10.1016/j.tca.2010.11.002)
Numbers after ± are expanded uncertainties.

Key:
[1] = mn = molality of the nth substance listed, in mol/kg; conditions: 101 kPa, Liquid, Vibrating tube method
[2] = 101 kPa, Liquid, Vibrating tube method

CN1CCCN(C)C1=O [1,3-dimethyl-3,4,5,6-tetrahydro-2(1H)-pyrimidinone] + [2H]O[2H]
mass density [kg/m3], [1]
Conditions	278.15 K	288.15 K	298.15 K	308.15 K	313.15 K	318.15 K
m1 = 0.0599	1105.6 ± 0.09	1105.78 ± 0.09	1104.3 ± 0.09	1101.53 ± 0.09	1099.72 ± 0.09	1097.69 ± 0.09
m1 = 0.08344	1105.61 ± 0.09	1105.76 ± 0.09	1104.25 ± 0.09	1101.47 ± 0.09	1099.64 ± 0.09	1097.6 ± 0.09
m1 = 0.1212	1105.63 ± 0.09	1105.73 ± 0.09	1104.18 ± 0.09	1101.36 ± 0.09	1099.52 ± 0.09	1097.47 ± 0.09
m1 = 0.1641	1105.66 ± 0.09	1105.71 ± 0.09	1104.11 ± 0.09	1101.25 ± 0.09	1099.39 ± 0.09	1097.32 ± 0.09
m1 = 0.2214	1105.72 ± 0.09	1105.69 ± 0.09	1104.03 ± 0.09	1101.11 ± 0.09	1099.23 ± 0.09	1097.13 ± 0.09
m1 = 0.3291	1105.85 ± 0.09	1105.68 ± 0.09	1103.9 ± 0.09	1100.88 ± 0.09	1098.96 ± 0.09	1096.82 ± 0.09
m1 = 0.5024	1106.17 ± 0.09	1105.76 ± 0.09	1103.77 ± 0.09	1100.59 ± 0.09	1098.6 ± 0.09	1096.39 ± 0.09
m1 = 0.6557	1106.53 ± 0.09	1105.89 ± 0.09	1103.73 ± 0.09	1100.4 ± 0.09	1098.34 ± 0.09	1096.07 ± 0.09
m1 = 0.7789	1106.85 ± 0.1	1106.03 ± 0.09	1103.73 ± 0.09	1100.28 ± 0.09	1098.17 ± 0.09	1095.85 ± 0.09
m1 = 0.9405	1107.31 ± 0.1	1106.25 ± 0.1	1103.76 ± 0.09	1100.16 ± 0.09	1097.99 ± 0.09	1095.61 ± 0.09
m1 = 1.074	1107.69 ± 0.1	1106.44 ± 0.1	1103.81 ± 0.09	1100.09 ± 0.09	1097.86 ± 0.09	1095.43 ± 0.09

[2H]O[2H] [water-d2]
[2]
Conditions	mass density [kg/m3]
278.15 K	1105.59 ± 0.09
288.15 K	1105.85 ± 0.09
298.15 K	1104.43 ± 0.09
308.15 K	1101.72 ± 0.09
313.15 K	1099.93 ± 0.09
318.15 K	1097.92 ± 0.09

[2H]O[2H] [water-d2] + CN1CCCN(C)C1=O
[1], m2 = 0
Conditions	mass density [kg/m3]
278.15 K	1105.59 ± 0.09
288.15 K	1105.85 ± 0.09
298.15 K	1104.43 ± 0.09
308.15 K	1101.72 ± 0.09
313.15 K	1099.93 ± 0.09
318.15 K	1097.92 ± 0.09
